From ChEMBL document CHEMBL2331428, “Synthesis of tetrazole analogues of phosphonohydroxamic acids: an attempt to improve the inhibitory activity against the DXR” (Bioorg Med Chem Lett, 2013) come the findings set out here.

For one assay, the system named is Escherichia coli. The assay is described as follows: Antibacterial activity against Escherichia coli assessed as growth inhibition at 400 nmol by disc diffusion method. In kind it is functional, organism-based. For orientation: In agar diffusion tests the substance spreads into inoculated agar from a disc or well.
Assay [1] in a line: Inhibition of N-terminal His6-tagged Escherichia coli DXR after 2 mins in presence of NADPH.

Active and inactive are the calls of the source. The rule behind the calls is not given here.

By IC50 is commonly meant the concentration at which inhibition is half-maximal. For the molecule `O=C(CCCCc1nnn[nH]1)NO`, in the assay with Escherichia coli, the “growth inhibition (GI)” value was “inactive”. Besides, the IC50 in assay [1] is 44000 µM.

Regarding `O=CN(O)CCCP(=O)(O)O` [FOSMIDOMYCIN], the half-maximal inhibitory concentration (IC50) in assay [1] was determined as 0.032 µM. In the case of `CN(O)C(=O)CCCc1nnn[nH]1`, in the assay on Escherichia coli, the “growth inhibition (GI)” value was “inactive”. In addition, the IC50 in assay [1] is 800 µM. For `CN(O)C(=O)CCCCc1nnn[nH]1`, in the assay with Escherichia coli, the “growth inhibition (GI)” value is “inactive”. Also, the concentration for half-maximal inhibition (IC50) in assay [1] stood at 4900 µM.

Consider `CN(O)C(=O)CCCP(=O)(O)O`, for which the concentration for half-maximal inhibition (IC50) in assay [1] came to 0.048 µM. Consider `CN(O)C(=O)CCc1nnn[nH]1`, for which, in the assay with Escherichia coli, the “growth inhibition (GI)” value was “inactive”. The 50% inhibitory concentration (IC50) in assay [1] was determined as 47000 µM.
